Values after ≈ are worked out from the molar mass of the structure shown.
Tested on: HT-29
Experiment: Cytotoxicity against human HT-29 cells
Assay type: functional, cell-based

| SMILES | IC50 |
| --- | --- |
| C=C/C(C)=C/CC(OC(C)=O)C(=C)CCC=C(C)C (stereo not given) | 5 µg/mL (≈ 19.1 µM) |
| CC(C)=CCCC(C)/C=C/C=C(\C)C=O (stereo not given) | 2.5 µg/mL (≈ 12.1 µM) |
| C=C/C(C)=C\C=C\C(C)CC(=O)CC(C)C (stereo not given) | 2.5 µg/mL (≈ 11.3 µM) |
| CC(C)=C/C=C\C(C)/C=C/C=C(\C)C=O (stereo not given) | > 10 µg/mL |
| C=C/C(C)=C/C=C/C(C)CC(=O)CC(C)C (stereo not given) | 5 µg/mL (≈ 22.7 µM) |

Tested on: A549
Experiment: Cytotoxicity against human A549 cells
Assay type: functional, cell-based

| SMILES | IC50 |
| --- | --- |
| C=C/C(C)=C/CC(OC(C)=O)C(=C)CCC=C(C)C (stereo not given) | 5 µg/mL (≈ 19.1 µM) |
| CC(C)=CCCC(C)/C=C/C=C(\C)C=O (stereo not given) | 2.5 µg/mL (≈ 12.1 µM) |
| C=C/C(C)=C\C=C\C(C)CC(=O)CC(C)C (stereo not given) | 2.5 µg/mL (≈ 11.3 µM) |
| CC(C)=C/C=C\C(C)/C=C/C=C(\C)C=O (stereo not given) | > 10 µg/mL |
| C=C/C(C)=C/C=C/C(C)CC(=O)CC(C)C (stereo not given) | 5 µg/mL (≈ 22.7 µM) |

Tested on: P388
Experiment: Cytotoxicity against mouse P388 cells
Assay type: functional, cell-based

| SMILES | IC50 |
| --- | --- |
| C=C/C(C)=C/CC(OC(C)=O)C(=C)CCC=C(C)C (stereo not given) | 2.5 µg/mL (≈ 9.53 µM) |
| CC(C)=CCCC(C)/C=C/C=C(\C)C=O (stereo not given) | 0.5 µg/mL (≈ 2.42 µM) |
| C=C/C(C)=C\C=C\C(C)CC(=O)CC(C)C (stereo not given) | 2.5 µg/mL (≈ 11.3 µM) |
| CC(C)=C/C=C\C(C)/C=C/C=C(\C)C=O (stereo not given) | > 10 µg/mL |
| C=C/C(C)=C/C=C/C(C)CC(=O)CC(C)C (stereo not given) | 2.5 µg/mL (≈ 11.3 µM) |

Tested on: SK-MEL-28
Experiment: Cytotoxicity against human SK-MEL-28 cells
Assay type: functional, cell-based

| SMILES | IC50 |
| --- | --- |
| C=C/C(C)=C/CC(OC(C)=O)C(=C)CCC=C(C)C (stereo not given) | 5 µg/mL (≈ 19.1 µM) |
| CC(C)=CCCC(C)/C=C/C=C(\C)C=O (stereo not given) | 2.5 µg/mL (≈ 12.1 µM) |
| C=C/C(C)=C\C=C\C(C)CC(=O)CC(C)C (stereo not given) | 2.5 µg/mL (≈ 11.3 µM) |
| CC(C)=C/C=C\C(C)/C=C/C=C(\C)C=O (stereo not given) | > 10 µg/mL |
| C=C/C(C)=C/C=C/C(C)CC(=O)CC(C)C (stereo not given) | 5 µg/mL (≈ 22.7 µM) |

Source: ChEMBL document CHEMBL1150809, “New acyclic sesquiterpenes and norsesquiterpenes from the Caribbean Gorgonian Plexaurella grisea” (J Nat Prod, 2001)
